Assay results taken from patent publication US5364931A (Bayer Aktiengesellschaft, priority 1990, dated 1994).

Legend:
[1] = biological target: T1, HIV protease (Human immunodeficiency virus type 1 group M subtype B, UniProt P04585); assay: HIV-specific protease enzyme test (RP-HPLC), compounds of formula (I); assay type: biochemical; conditions: purified HIV protease, synthetic Gag cleavage-site peptide, compounds of general formula (I)
T1 construct: purified HIV protease was incubated with synthetic peptide
Protocol: (§1) The results for the examples listed below were determined by the HIV test system described in the following literature reports [cf. Hansen, J., Billich, S., Schulze, T. Sukrow, S. and Molling, K. (1988), EMBO Journal, Vol. 7, No. 6, pages 1785-1791]: purified HIV protease was incubated with synthetic peptide which imitates a cleavage site in the Gag precursor protein and represents an in vivo cleavage site of the HIV protease. The resulting cleavage products of the synthetic peptide were analysed by means of reverse phase high performance liquid chromatography (RP-HPLC). The IC50 values given relate to the substance concentration which causes a 50% inhibition of protease activity under the abovementioned test conditions.

[2] = biological target: HIV-I protease (Human immunodeficiency virus type 1 group M subtype B, UniProt P04585); conditions: read-out: IC50 (inactivation of HIV-I protease); cited from earlier work
[3] = biological target: T2, HIV-1 protease (Human immunodeficiency virus type 1 group M subtype B, UniProt P04585); assay: HIV-specific protease enzyme test (RP-HPLC), HIV-1; assay type: biochemical
T2 construct: purified HIV protease was incubated with synthetic peptide
Protocol: as §1

[4] = biological target: T3, HIV-2 protease (Human immunodeficiency virus type 2 subtype A, UniProt P04584); assay: HIV-specific protease enzyme test (RP-HPLC), HIV-2; assay type: biochemical; conditions: compounds of general formula (VIa)
T3 construct: purified HIV protease was incubated with synthetic peptide
Protocol: as §1

T3 sequence (P04584 514-612 limits assumed): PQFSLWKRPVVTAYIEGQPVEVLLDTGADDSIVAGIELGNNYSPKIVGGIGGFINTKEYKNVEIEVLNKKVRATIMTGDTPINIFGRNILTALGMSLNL

Row | Molecule | IC50 [1] [nM] | also measured
1 | CCOP(=O)(OCC)C1CCCN1C[C@H](O)[C@H](CC1CCCCC1)NC(=O)OC(C)(C)C (mixture of isomers) [5 (polar), Diethyl 1-{(2S, 3S)-3-[(tert-butoxycarbonyl)-amino]-4-cyclohexyl-2-hydroxy-butyl}-(2R and 2S)-2 (pyrrolidinyl)-phosphonate] | 100 | –
2 | Diethyl 1-{(3S, 4S)-4-[(2S)-3-(tert-butylsulphonyl)-2-(1-naphthylmethyl)propanoyl]valinylamino]-5-cyclohexyl-3-hydroxy-pentanoyl}-(2R or 2S)-2-(pyrrolidinyl)phosphonate [26 (polar)] | 100 | –
3 | O=[N+]([O-])c1ccc(OCC2CO2)cc1 (stereo not drawn) [EPNP, 1,2-epoxy-3-(4-nitrophenoxy)propane] | – | IC50 [2]: 450 µM
4 | CCOP(=O)(OCC)C1CCCN1C[C@H](O)[C@H](CC1CCCCC1)NC(=O)OC(C)(C)C (mixture of isomers) [5 (non-polar), Diethyl 1-{(2S, 3S)-3-[(tert-butoxycarbonyl)-amino]-4-cyclohexyl-2-hydroxy-butyl}-(2R and 2S)-2 (pyrrolidinyl)-phosphonate] | 1000 | –
5 | CC(C)[C@H](NC(=O)[C@H](Cc1ccccc1)NC(=O)CC(C)(C)C)C(=O)N[C@@H](Cc1ccccc1)C1CO1 (stereo partly drawn) [Example 46] | – | IC50 [3]: 5 nM; IC50 [4]: 10 nM
